The record followed here is PMC11951083, “Highly Specific Miniaturized Fluorescent Monoacylglycerol Lipase Probes Enable Translational Research” (Journal of the American Chemical Society, 2025).

One assay addresses PDE4D2 (h) (Homo sapiens, UniProt Q08499). Description: PDE4D2 (h). Conditions: read-out: Inhibition PDE4D2 (h).
Another assay concerns HIV-1 protease. Description: HIV-1 protease. Conditions: 10 µM.
A further assay has as its target T1, A3 (h) (Homo sapiens, UniProt P0DMS8).
T1 sequence (P0DMS8 1-318): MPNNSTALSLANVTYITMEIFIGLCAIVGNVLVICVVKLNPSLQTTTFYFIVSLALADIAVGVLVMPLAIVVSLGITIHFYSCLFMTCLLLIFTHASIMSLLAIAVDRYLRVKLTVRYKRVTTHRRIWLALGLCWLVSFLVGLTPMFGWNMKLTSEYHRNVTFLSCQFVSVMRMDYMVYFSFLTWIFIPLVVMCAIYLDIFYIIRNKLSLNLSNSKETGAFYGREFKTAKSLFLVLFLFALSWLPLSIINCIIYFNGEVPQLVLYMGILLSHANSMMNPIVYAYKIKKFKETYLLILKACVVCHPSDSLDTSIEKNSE
Description: A3 (h) (agonist radioligand). As to conditions: read-out: Inhibition A3 (h) (agonist radioligand).

A further assay has as its system PCP. Description: PCP (antagonist radioligand). Conditions: 10 µM.
In a further assay the target is H3 (h) (Homo sapiens, UniProt Q9Y5N1). Description: H3 (h) (agonist radioligand). Conditions: read-out: Inhibition H3 (h) (agonist radioligand).
Chain of H3 (h) (Q9Y5N1 whole entry): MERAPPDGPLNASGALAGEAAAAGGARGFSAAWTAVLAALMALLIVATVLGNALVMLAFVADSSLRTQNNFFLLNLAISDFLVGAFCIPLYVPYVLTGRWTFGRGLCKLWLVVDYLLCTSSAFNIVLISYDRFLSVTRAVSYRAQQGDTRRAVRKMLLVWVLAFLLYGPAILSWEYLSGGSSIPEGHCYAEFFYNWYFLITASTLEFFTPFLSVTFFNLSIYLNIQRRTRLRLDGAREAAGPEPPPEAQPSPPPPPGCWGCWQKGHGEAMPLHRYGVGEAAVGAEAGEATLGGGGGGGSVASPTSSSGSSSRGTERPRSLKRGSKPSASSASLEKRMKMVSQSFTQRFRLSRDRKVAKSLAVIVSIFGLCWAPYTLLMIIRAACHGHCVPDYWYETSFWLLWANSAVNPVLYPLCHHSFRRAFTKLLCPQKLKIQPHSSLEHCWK
Another assay concerns the target FP (h) (Homo sapiens, UniProt P43088). Description: FP (h) (agonist radioligand). Conditions: read-out: Inhibition FP (h) (agonist radioligand).
The next assay addresses D2S (h) (Homo sapiens, UniProt P14416). Description: D2S (h) (agonist radioligand). As to conditions: read-out: Inhibition D2S (h) (agonist radioligand).
The target in a further assay is T2, M2 (h) (Homo sapiens, UniProt P08172).
T2 sequence (P08172 1-466): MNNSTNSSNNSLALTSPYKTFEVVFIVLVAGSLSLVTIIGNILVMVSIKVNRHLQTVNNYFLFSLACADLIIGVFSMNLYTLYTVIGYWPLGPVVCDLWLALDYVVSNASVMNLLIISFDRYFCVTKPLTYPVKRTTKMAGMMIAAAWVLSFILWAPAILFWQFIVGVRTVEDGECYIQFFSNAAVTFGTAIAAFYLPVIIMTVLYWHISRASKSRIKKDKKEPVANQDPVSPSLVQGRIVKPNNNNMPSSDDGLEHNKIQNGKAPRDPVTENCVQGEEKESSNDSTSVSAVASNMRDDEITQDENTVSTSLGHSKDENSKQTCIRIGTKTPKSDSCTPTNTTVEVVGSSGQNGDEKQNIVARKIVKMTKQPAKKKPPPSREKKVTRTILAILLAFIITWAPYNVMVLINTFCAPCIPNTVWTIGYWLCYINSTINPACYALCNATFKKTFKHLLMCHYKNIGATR
Description: M2 (h) (antagonist radioligand). As to conditions: read-out: Inhibition M2 (h) (antagonist radioligand).

The target in another assay is H1 (h) (Homo sapiens, UniProt P35367). Description: H1 (h) (antagonist radioligand). As to conditions: read-out: Inhibition H1 (h) (antagonist radioligand).
Chain of H1 (h) (P35367 whole entry): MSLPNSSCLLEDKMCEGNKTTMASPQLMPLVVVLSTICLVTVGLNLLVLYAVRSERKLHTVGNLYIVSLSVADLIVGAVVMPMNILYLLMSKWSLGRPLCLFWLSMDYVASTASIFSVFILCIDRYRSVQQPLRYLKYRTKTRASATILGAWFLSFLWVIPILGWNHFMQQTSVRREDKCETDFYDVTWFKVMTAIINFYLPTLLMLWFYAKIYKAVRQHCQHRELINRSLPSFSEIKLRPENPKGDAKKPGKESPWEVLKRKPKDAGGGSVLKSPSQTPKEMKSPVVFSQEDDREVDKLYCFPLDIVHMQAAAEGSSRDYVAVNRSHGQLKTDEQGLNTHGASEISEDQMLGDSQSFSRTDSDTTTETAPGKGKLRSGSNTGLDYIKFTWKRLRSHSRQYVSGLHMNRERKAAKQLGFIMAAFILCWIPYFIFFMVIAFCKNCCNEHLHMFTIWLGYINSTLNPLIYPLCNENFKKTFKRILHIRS
The next assay addresses T3, AT1 (h) (Homo sapiens, UniProt P30556).
T3 sequence (P30556 1-359): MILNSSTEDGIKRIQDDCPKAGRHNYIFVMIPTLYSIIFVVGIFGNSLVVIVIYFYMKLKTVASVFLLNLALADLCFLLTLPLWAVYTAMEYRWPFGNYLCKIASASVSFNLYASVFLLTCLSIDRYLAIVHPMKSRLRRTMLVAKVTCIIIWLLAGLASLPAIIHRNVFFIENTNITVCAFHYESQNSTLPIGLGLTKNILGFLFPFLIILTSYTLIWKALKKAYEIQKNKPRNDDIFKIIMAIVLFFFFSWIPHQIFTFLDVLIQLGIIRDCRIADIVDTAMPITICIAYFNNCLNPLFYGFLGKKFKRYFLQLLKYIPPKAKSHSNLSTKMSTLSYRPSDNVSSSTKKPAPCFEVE
Description: AT1 (h) (antagonist radioligand). As to conditions: read-out: Inhibition AT1 (h) (antagonist radioligand).

Another assay concerns the target T4, 5-HT1A (h) (Homo sapiens, UniProt P08908).
T4 sequence (P08908 1-422): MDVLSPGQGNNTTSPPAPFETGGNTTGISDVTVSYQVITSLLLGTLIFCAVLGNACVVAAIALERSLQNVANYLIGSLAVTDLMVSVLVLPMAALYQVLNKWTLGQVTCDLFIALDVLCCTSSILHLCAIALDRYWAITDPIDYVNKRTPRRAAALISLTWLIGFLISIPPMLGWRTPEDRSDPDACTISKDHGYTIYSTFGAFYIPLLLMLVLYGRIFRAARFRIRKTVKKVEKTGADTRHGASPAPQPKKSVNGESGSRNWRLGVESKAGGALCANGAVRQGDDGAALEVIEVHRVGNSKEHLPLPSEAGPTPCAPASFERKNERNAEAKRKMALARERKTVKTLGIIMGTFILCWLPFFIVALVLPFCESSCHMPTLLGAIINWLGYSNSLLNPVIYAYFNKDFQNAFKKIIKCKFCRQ
Description: 5-HT1A (h) (agonist radioligand). Conditions: read-out: Inhibition 5-HT1A (h) (agonist radioligand).

Another assay deals with 5-HT2A (h) (Homo sapiens, UniProt P28223). Description: 5-HT2A (h) (agonist radioligand). As to conditions: read-out: Inhibition 5-HT2A (h) (agonist radioligand).
Chain of 5-HT2A (h) (P28223 whole entry): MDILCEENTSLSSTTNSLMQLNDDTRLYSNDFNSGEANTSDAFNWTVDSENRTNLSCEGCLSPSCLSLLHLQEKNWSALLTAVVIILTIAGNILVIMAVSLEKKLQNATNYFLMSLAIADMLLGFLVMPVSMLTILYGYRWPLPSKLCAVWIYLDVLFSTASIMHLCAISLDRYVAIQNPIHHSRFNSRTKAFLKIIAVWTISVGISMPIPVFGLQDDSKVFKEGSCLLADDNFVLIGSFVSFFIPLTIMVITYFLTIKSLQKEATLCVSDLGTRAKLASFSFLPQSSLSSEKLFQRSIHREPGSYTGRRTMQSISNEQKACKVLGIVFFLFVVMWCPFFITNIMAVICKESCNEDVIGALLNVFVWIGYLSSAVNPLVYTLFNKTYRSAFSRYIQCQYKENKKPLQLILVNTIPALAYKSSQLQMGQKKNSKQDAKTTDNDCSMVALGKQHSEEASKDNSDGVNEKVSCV
The target in the next assay is 5-HT2B (h) (Homo sapiens, UniProt P41595). Description: 5-HT2B (h) (agonist radioligand). Conditions: read-out: Inhibition 5-HT2B (h) (agonist radioligand).
Chain of 5-HT2B (h) (P41595 whole entry): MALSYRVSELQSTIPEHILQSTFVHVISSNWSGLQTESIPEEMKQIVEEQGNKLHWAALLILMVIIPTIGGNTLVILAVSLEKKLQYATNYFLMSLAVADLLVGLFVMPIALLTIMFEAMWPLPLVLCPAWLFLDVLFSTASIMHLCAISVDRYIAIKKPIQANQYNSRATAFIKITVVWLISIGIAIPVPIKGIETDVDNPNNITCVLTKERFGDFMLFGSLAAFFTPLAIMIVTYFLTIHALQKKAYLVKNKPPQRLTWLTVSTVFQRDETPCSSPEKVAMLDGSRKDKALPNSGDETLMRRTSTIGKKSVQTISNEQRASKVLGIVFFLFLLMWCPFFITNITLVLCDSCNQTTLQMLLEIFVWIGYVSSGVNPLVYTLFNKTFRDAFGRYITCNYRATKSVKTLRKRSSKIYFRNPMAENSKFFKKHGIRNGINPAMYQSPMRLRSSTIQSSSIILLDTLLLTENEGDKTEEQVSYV
The next assay has as its system BZD (central). Description: BZD (central) (agonist radioligand). Conditions: 10 µM.
The test system of assay [1] is 50 clinically relevant and safety-related off-targets. Description: CEREP panel of 50 off-targets (overall). Conditions: for selectivity profile in off-target panel: 10 μM, panel of 50 unrelated off-target receptors and enzymes; for S(90): fraction of targets with more than 90% inhibition at 10 µM; for S(50): fraction of targets with more than 50% inhibition at 10 µM.

Assay [2] deals with norepinephrine transporter (h) (Homo sapiens, UniProt P23975). Description: norepinephrine transporter (h) (antagonist radioligand). As to conditions: read-out: Inhibition norepinephrine transporter (h) (antagonist radioligand).
Chain of norepinephrine transporter (h) (P23975 whole entry): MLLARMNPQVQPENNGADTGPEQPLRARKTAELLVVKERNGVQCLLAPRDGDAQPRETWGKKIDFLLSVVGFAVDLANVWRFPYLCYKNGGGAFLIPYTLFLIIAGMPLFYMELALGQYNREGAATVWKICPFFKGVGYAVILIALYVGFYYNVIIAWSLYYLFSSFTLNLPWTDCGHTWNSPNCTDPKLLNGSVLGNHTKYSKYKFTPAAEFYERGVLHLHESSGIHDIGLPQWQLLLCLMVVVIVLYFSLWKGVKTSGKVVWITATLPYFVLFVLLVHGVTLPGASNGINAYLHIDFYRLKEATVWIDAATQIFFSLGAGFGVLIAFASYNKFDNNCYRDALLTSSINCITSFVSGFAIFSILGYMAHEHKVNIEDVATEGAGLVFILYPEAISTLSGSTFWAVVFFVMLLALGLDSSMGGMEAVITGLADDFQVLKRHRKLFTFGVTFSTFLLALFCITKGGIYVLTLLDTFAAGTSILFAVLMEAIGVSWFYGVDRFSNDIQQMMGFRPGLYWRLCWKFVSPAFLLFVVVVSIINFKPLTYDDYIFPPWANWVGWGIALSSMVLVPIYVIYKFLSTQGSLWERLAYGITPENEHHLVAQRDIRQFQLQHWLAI

Chain of D2S (h) (P14416 1-414 isoform P14416-2): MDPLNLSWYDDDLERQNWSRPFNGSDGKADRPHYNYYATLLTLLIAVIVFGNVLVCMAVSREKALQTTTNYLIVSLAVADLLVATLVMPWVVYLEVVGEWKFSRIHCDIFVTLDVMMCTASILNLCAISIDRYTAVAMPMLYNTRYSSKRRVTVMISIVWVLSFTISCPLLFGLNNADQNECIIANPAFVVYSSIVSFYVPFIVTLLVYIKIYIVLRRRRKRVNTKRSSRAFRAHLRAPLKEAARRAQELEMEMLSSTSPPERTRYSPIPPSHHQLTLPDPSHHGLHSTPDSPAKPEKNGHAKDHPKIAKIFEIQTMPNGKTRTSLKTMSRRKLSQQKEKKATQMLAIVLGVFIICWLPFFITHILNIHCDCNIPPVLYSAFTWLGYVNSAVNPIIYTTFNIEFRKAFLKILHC
Chain of FP (h) (P43088 whole entry): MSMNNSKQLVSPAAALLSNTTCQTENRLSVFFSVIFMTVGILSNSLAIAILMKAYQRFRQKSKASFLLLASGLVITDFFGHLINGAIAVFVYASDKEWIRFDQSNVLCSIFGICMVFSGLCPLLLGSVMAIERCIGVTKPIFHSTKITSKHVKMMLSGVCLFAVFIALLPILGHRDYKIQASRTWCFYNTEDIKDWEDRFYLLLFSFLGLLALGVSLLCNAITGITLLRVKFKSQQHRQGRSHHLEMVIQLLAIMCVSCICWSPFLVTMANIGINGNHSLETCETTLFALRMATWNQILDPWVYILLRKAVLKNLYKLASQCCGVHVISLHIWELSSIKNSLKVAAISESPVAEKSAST
Chain of PDE4D2 (h) (Q08499 303-809 limits assumed): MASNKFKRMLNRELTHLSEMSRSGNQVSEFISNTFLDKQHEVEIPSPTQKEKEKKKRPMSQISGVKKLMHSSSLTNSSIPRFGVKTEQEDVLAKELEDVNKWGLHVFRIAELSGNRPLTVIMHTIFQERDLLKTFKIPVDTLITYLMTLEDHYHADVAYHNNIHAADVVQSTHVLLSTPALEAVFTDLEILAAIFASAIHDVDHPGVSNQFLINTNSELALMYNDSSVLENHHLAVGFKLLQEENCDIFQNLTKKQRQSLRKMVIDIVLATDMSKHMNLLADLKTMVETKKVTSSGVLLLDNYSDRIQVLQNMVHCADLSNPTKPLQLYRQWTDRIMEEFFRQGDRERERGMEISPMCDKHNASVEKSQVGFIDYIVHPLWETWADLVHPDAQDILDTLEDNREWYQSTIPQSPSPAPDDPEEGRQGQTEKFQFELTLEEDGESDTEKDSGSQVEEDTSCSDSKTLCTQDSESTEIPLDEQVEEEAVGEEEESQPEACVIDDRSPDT

Broadly, the inhibition is the change of the read-out against control, counted positive when it falls. As to `O=C(O[C@H](CO)C(F)(F)F)N1CC2(CC(CC3=C4C=CC=[N+]4[B-](F)(F)n4cccc43)C2)C1` [Compound 1], the inhibition at 10 µM at PDE4D2 (h) is 18%; at A3 (h), -1.6%; on H3 (h), 5.2%; at FP (h) it was 11.6%; at D2S (h), 5.9%; at M2 (h), 35.1%. For the same molecule, the inhibition at 10 µM at H1 (h) was 30.4%; on AT1 (h), -4.3%; on 5-HT1A (h), 0%; on 5-HT2A (h), -13.2%; on 5-HT2B (h), 28.3%; in [2], 7.4%. Besides, the “Inhibition HIV-1 protease” value with HIV-1 protease was 10,30%. Also, in the assay on PCP, the “Inhibition PCP (antagonist radioligand)” value is 6,90%. For the same molecule, the “Inhibition BZD (central) (agonist radioligand)” value (“Inhibition BZD (central)” for short) in the assay with BZD (central) is given as -11,90%. For the same molecule, in assay [1], the “selectivity profile in off-target panel” value is “very clean selectivity profile”. The “S(90)” value in [1] came to 0.0%.

With `O=C(OC(C(F)(F)F)C(F)(F)F)N1CC2(CC(CC3=C4C=CC=[N+]4[B-](F)(F)n4cccc43)C2)C1` [Compound 2], the inhibition at 10 µM was -0.6% at PDE4D2 (h); 45% on A3 (h); -7.2% at H3 (h); 6.5% at FP (h); -4.1% at D2S (h); 22.2% at M2 (h). Also, the inhibition at 10 µM is 5.5% at H1 (h); -1.2% at AT1 (h); -29.4% on 5-HT1A (h); -36.2% at 5-HT2A (h); 4.1% at 5-HT2B (h); -0.5% in assay [2]. In addition, the “Inhibition HIV-1 protease” value with HIV-1 protease is reported as -1,90%. The “Inhibition PCP (antagonist radioligand)” value in the assay with PCP is listed as -5,50%. The “Inhibition BZD (central)” value in the assay on BZD (central) was -27,70%. Also, the “selectivity profile in off-target panel” value in [1] is on record as “very clean selectivity profile”. For the same molecule, in [1], the “S(50)” value is recorded as 4.0%. For the same molecule, the “S(90)” value in assay [1] amounted to 0.0%.

As for `O=C(OC(C(F)(F)F)C(F)(F)F)N1CC2(CC(CC3=C4C=CC(c5ccc[nH]5)=[N+]4[B-](F)(F)n4cccc43)C2)C1` [Compound 2a], the inhibition at 10 µM is -10.8% at PDE4D2 (h); 34.8% on A3 (h); 7.3% on H3 (h); 4.4% on FP (h); -2.6% on D2S (h); -13.1% at M2 (h). For the same molecule, the inhibition at 10 µM at H1 (h) was 4.4%; on AT1 (h), 2.5%; at 5-HT1A (h), -5.5%; on 5-HT2A (h) it was -6.8%; on 5-HT2B (h), 20.8%; in [2] it was 6.3%. Further, the “Inhibition HIV-1 protease” value with HIV-1 protease is reported as 8,30%. For the same molecule, in the assay with PCP, the “Inhibition PCP (antagonist radioligand)” value is reported as -18,80%. The “Inhibition BZD (central)” value in the assay with BZD (central) is 0,90%. The “selectivity profile in off-target panel” value in [1] was “very clean selectivity profile”. The “S(50)” value in [1] was found to be 0.0%. The “S(90)” value in assay [1] stood at 0.0%.

Consider `O=C1CO[C@H]2CCN(C(=O)N3CC4(CC(CC5=C6C=CC(c7ccc[nH]7)=[N+]6[B-](F)(F)n6cccc65)C4)C3)C[C@H]2N1` [Compound 4a], for which the inhibition at 10 µM is 10.8% at PDE4D2 (h); 1.8% on H3 (h); 16.3% on FP (h); 3.3% on D2S (h); -4.9% on M2 (h); 1.3% at H1 (h). The inhibition at 10 µM on AT1 (h) was -12.5%; on 5-HT1A (h), -2.4%; on 5-HT2A (h), 18.5%; on 5-HT2B (h), 30.3%; in [2] it was 12.2%. The “Inhibition HIV-1 protease” value with HIV-1 protease is reported as 23,80%. Also, the “Inhibition PCP (antagonist radioligand)” value with PCP is 3,60%. Besides, the “Inhibition BZD (central)” value in the assay with BZD (central) was -4,10%. The “selectivity profile in off-target panel” value in assay [1] is listed as “very clean selectivity profile”. Besides, the “S(50)” value in assay [1] came out at 0.0%. The “S(90)” value in assay [1] was found to be 0.0%.

Regarding `O=C(N1CC2(CC(CC3=C4C=CC=[N+]4[B-](F)(F)n4cccc43)C2)C1)N1CC2(CC(n3cnc(C4CC4)n3)C2)C1` [Compound 5], the inhibition at 10 µM is 11.3% at PDE4D2 (h); 17.7% at A3 (h); -3.7% at H3 (h); 10.4% at FP (h); 12.6% at D2S (h); 33.2% at M2 (h). Also, the inhibition at 10 µM is 51.5% on H1 (h); 11.1% at AT1 (h); 2.4% on 5-HT1A (h); -9.2% on 5-HT2A (h); 0.1% on 5-HT2B (h); 8.6% in [2]. Further, the “Inhibition HIV-1 protease” value with HIV-1 protease was 5,20%. In addition, the “Inhibition PCP (antagonist radioligand)” value in the assay with PCP is given as -14,20%. Also, the “Inhibition BZD (central)” value in the assay with BZD (central) is listed as -16,30%. Also, the “selectivity profile in off-target panel” value in assay [1] is reported as “very clean selectivity profile”. Moreover, the “S(90)” value in assay [1] was 0.0%.
